By IC50 is commonly meant the concentration that inhibits the measured activity by half.

The results in this text go back to US6903081B2, “Phosphoramidates and methods therefor” (Purdue Research Foundation, priority 2000, dated 2005).

One assay has as its system LM cells. As to the kind of experiment: Tritium assay in LM cells. Conditions: read-out: IC50 tritium assay. In kind it is cell-based. How it is done: (§1) Stock solutions of drugs were prepared in absolute ethanol. L1210 cells were suspended in fisher's medium, LM and LM (TK-) cells were suspended in minimum essential medium to give a final density of 11.24×10^6 cells/mL. Aliquots ([…]) of the cell suspension were placed in ependorf tubes, followed by addition of 5 mL of drug solution and incubated at 37° C. for 2 hours. Tritium release reaction was started by the addition of […] of serum free media containing 1 mCi [5-^3H]dCyt in a 0.5 mM dCyt solution. Allowed reaction to incubate for 60 min in a shaking water bath at 37° C. Reaction was terminated by transferring 100 mL of the reaction mixture to ependorf tubes containing 100 mL of a 20% mixture of activated charcoal suspension in 4% aqueous perchloric acid. Tubes were vigorously vortexed, then centrifuged in a microfuge. Radioactivity of […] of the supernatant was measured using a scintillation spectrometer. The data were analyzed by sigmoidal curve fit of CMP vs. Log (drug concentration) and the results expressed as the IC50 (the drug concentration that inhibits cell growth to 50% of control value).

For the next assay, the system named is L1210 leukemia cells. The assay is described as follows: Growth inhibition in L1210 mouse leukemia cells. In kind it is cell-based. How it is done:
In an alternate embodiment of the invention, the analogous thymidine compounds were prepared (i.e., 3 where F═CH3). The thymidine phosphoramidate was activated by reduction of the nitrofuryl group with sodium dithionite in aqueous buffer/acetonitrile at 37° C., and the reaction was monitored by ^31P nmr. Within ten minutes the resonance for the phosphoramidate anion had disappeared and a new peak corresponding to thymidine-5′-phosphate appeared as the exclusive phosphorus-containing product by ^31P nmr. Nucleoside phosphoramidate 3 was then evaluated for its ability to inhibit proliferation of L1210 leukemia cells in vitro. Cells were exposed to drug for 2, 8, 24, and 48 hours; the results are summarized below:
Stock solutions of drugs were prepared in absolute ethanol, and serial dilutions of drug were prepared in ethanol. L1210 cells were suspended in Fisher's medium supplemented with 10% horse serum, 1% glutamine, and 1% antibiotic-antimycotic solution to give 10 mL volumes of cell suspension at a final density of 3-6×10^4 cells/mL. Appropriate volumes of the drug solution were transferred to the cell suspensions, and incubation was continued for 2, 8, 24, or 48 hours. The cells were spun down, resuspended in fresh drug-free medium and returned to the incubator. Final cell counts were determined 48 hours after the start of drug treatment. The data were analyzed by sigmoidal curve fit of cell count vs. Log (drug concentration) and the results expressed as the IC50 (the drug concentration that inhibits cell growth to 50% of control value).

The next assay concerns LM(TK-) cells. As to the kind of experiment: Tritium assay in LM(TK-) cells. In kind it is cell-based. The conditions noted are these: L-M(TK-), read-out: IC50 tritium assay. Here is the method: as §1
The subject of a further assay is L1210 cells. As to the kind of experiment: Tritium assay in L1210 cells. In kind it is cell-based. The conditions noted are these: Mus musculus. Here is the method:
as §1

In assay [1] the test system is luciferase expression in J77 cells transfected with NF-AT-Luciferase plasmid. The assay is described as follows: Luciferase inhibition on transfected J77 cells. The format is cell-based. The conditions noted are these: read-out: IC50 luciferase inhibition. Here is the method: J77 cells (2×10^7 cells in […] of FBS-free RPMI media) were transfected with […] of NF-AT-Luciferase plasmid. Cells were transferred to a flask with 10 mL of complete RPMI media and incubated for 24 hours. After this time cells were spun down, resuspended in 12 mL of complete RPMI media and divided into a 6-well well plate (2 mL/well). Drug stock solutions in DMSO were made and each well was treated with a different concentration and incubated for 2 hours. Each well was then treated with 10 mL of a mixture of 1.25 mg of PMA and 9 mg of Ionomycin in 115 mL of FBS-free RPMI, followed by the addition of 2 mg of Anti-CD3. Cells were incubated for 6 hours, spun down, washed with PBS, lysed for 15 min and centrifuged. Supernantant was collected and stored at −78° C. overnight. Luciferase activity was measured using a luminometer with a mixture of 50 mL of luciferase substrate and 10 ml of supernatant.

For a further assay, the target named is pp60src SH2 domain (Homo sapiens, UniProt P12931). As to the kind of experiment: Binding to pp60src SH2 domain. Conditions: read-out: binding affinity. From the text: An alternate embodiment of the invention is illustrated in scheme 3: [drawing 3] This reaction is directed toward the synthesis of phosphoramidate 11A and involved the preparation of the nitrofuryl phosphoramidate of p-hydroxybenzoic acid 9A and coupling of this product with the benzyl amine 10A, prepared from 5-acetylsalicylamide. Briefly, to synthesize the benzoic acid derivative 9A, p-Hydroxybenzoic acid was converted to its allyl ester 6A by reaction of the potassium salt with allylbromide. The allyl ester was reacted with POCl3 and the intermediate phosphoryl dichloride was treated with methyl chlorobutylamine in the presence of triethylamine to give phosphoramidic chloride 7A. Reaction of 7A with the lithium salt of 5-nitro-2-hydroxymethylfuran afforded the phosphoramidate 8A. Deprotection of the allyl ester was accomplished by reaction with Pd(Ph3P)4/sodium p-toluenesulfinate to give the benzoic acid phosphoramidate 9A. Reaction of 9A with isobutyl chloroformate in the presence of triethylamine, followed by addition of benzylamine 10A afforded the desired peptidomimetic prodrug 11A. In order to confirm that the activation chemistry of 11A to 12A would proceed as expected, 11A was reduced with sodium dithionite in ethanol/aqueous buffer and the reaction monitored by ^31P nmr. […]
Chain of pp60src SH2 domain (P12931 151-248 limits assumed): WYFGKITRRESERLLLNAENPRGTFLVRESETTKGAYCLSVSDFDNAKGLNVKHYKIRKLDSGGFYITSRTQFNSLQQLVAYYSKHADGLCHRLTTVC

Where [2] appears, read: Mus musculus, L1210, 2 h, read-out: L1210 IC50, drug exposure 2 hr, comparison of compound 5 with compound 3.
The mark [3] stands for this setting: Mus musculus, L1210, 8 h, read-out: L1210 IC50, drug exposure 8 hr, comparison of compound 5 with compound 3.
Setting [4] is: Mus musculus, L1210, 24 h, read-out: L1210 IC50, drug exposure 24 hr, comparison of compound 5 with compound 3.
[5] abbreviates: Mus musculus, L1210, 48 h, drug exposure 48 h, final cell counts 48 hours after start of drug treatment.
[6] abbreviates: Mus musculus, L1210, 48 h, read-out: L1210 IC50, drug exposure 48 hr, comparison of compound 5 with compound 3.
The mark [7] stands for this setting: Mus musculus, L1210, drug exposure 2 h, final cell counts 48 hours after start of drug treatment.
Where [8] appears, read: Mus musculus, L1210, drug exposure 8 h, final cell counts 48 hours after start of drug treatment.
Where [9] appears, read: Mus musculus, L1210, drug exposure 24 h, final cell counts 48 hours after start of drug treatment.

Entries after “also recorded” stand apart in the source; their conditions may differ. Like-named read-outs stand apart in the source and are kept apart here.

As to `O=c1[nH]c(=O)n([C@H]2C[C@H](O)[C@@H](CO)O2)cc1F` [FUdR, 5-Fluoro-2′-deoxyuridine, reference compound], the IC50 with LM cells (LM, drug 2 hours at 37° C., then [5-3H]dCyt 60 min) came out at 59 nM; with L1210 leukemia cells (Mus musculus, L1210, 48 h, drug exposure 48 h, final cell counts 48 hours after start of drug treatment, read-out: IC50), 0.64 nM; in the assay with L1210 leukemia cells (Mus musculus, L1210, drug exposure 2 h, final cell counts 48 hours after start of drug treatment, read-out: IC50) it was 45 nM; in the assay on L1210 leukemia cells (Mus musculus, L1210, drug exposure 8 h, final cell counts 48 hours after start of drug treatment, read-out: IC50), 23 nM; with L1210 leukemia cells (Mus musculus, L1210, drug exposure 24 h, final cell counts 48 hours after start of drug treatment, read-out: IC50), 4.1 nM; in the assay with LM(TK-) cells (LM(TK-), drug 2 hours at 37° C., then [5-3H]dCyt 60 min) it was 3670 nM. Moreover, in the assay with L1210 cells (L1210, drug 2 hours at 37° C., then [5-3H]dCyt 60 min, read-out: IC50 tritium assay), the 50% inhibitory concentration (IC50) is 8 nM.
As for `CC(NC(=O)c1ccc(OP(=O)(OCc2ccc([N+](=O)[O-])o2)N(C)CCCCCl)cc1)c1ccc(OCC2CCCCC2)c(C(N)=O)c1` (stereo not shown) [Compound 35], the IC50 in assay [1] stood at 34.1 µM.
On the same count and under the same terms, as for `CC(NC(=O)Cc1ccc(OP(=O)(OCc2ccc([N+](=O)[O-])o2)N(C)CCCCCl)cc1)c1ccc(OCC2CCCCC2)c(C(N)=O)c1` (stereo not shown) [Compound 40], the figure is 3.4 µM.
On to `CN(CCCCCl)P(=O)(OCC1=CC(=O)c2ccccc2C1=O)OC[C@H]1O[C@@H](n2cc(F)c(=O)[nH]c2=O)CC1O` (stereo partly shown) [Compound 5, 5-Fluoro-2′-deoxyuridyl 2-(1,4-napthoquinonyl)methyl N-methyl-N-(4-chlorobutyl)phosphoramidate], for which the “inhibition of L1210 cell proliferation, in words” value with L1210 leukemia cells is “highly potent inhibitors”. In the assay on L1210 leukemia cells (L1210 cell proliferation), the “potency relative to compound 3” value is listed as “approximately 3 fold”. The IC50 in the assay on L1210 leukemia cells (setting [2]) amounted to 44 nM; with L1210 leukemia cells (setting [3]) it was 16 nM; in the assay on L1210 leukemia cells (setting [4]) it was 3.1 nM; in the assay with L1210 leukemia cells (setting [5]), 0.63 nM; with L1210 leukemia cells (setting [6]), 0.63 nM; in the assay with L1210 leukemia cells (setting [7]), 44 nM. Further, the results for the IC50 in the assay with L1210 leukemia cells (setting [8]) and in the assay with L1210 leukemia cells (setting [9]) were 16 nM and 3.1 nM, respectively.
On to `CN(CCCCCl)P(=O)(OCc1ccc([N+](=O)[O-])o1)OC[C@H]1O[C@@H](n2cc(F)c(=O)[nH]c2=O)CC1O` (stereo partly shown) [Compound 3, 5-Fluoro-2′-deoxyuridyl 5-nitrofurfuryl N-methyl-N-(4-chlorobutyl)phosphoramidate], for which the IC50 in the assay on LM cells is 711 nM; with L1210 leukemia cells (Mus musculus, L1210, 2 h, read-out: L1210 IC50, drug exposure 2 hr), 112 nM; in the assay with L1210 leukemia cells (setting [2]), 116 nM; with L1210 leukemia cells (Mus musculus, L1210, 8 h, read-out: L1210 IC50, drug exposure 8 hr) it was 40 nM; in the assay on L1210 leukemia cells (setting [3]) it was 47 nM; with L1210 leukemia cells (Mus musculus, L1210, 24 h, read-out: L1210 IC50, drug exposure 24 hr), 6 nM. The IC50 in the assay on L1210 leukemia cells (setting [4]) came out at 7.2 nM; in the assay with L1210 leukemia cells (setting [5]) it was 2.3 nM; in the assay on L1210 leukemia cells (Mus musculus, L1210, 48 h, read-out: L1210 IC50, drug exposure 48 hr), 2 nM; with L1210 leukemia cells (setting [6]), 2.3 nM; with L1210 leukemia cells (setting [7]), 116 nM; in the assay on L1210 leukemia cells (setting [8]), 47 nM. Also, the IC50 in the assay with L1210 leukemia cells (setting [9]) is 7.2 nM; in the assay with LM(TK-) cells, 1280 nM; with L1210 cells (L1210, read-out: IC50 tritium assay), 46 nM. The “inhibition of L1210 cell proliferation, in words” value with L1210 leukemia cells was “significantly more potent than the analogous bromoethyl compound; also recorded: highly potent inhibitors”.
On to `O=c1[nH]cc(F)c(=O)[nH]1` [Compound 5-FU, reference compound], for which the IC50 in the assay on L1210 leukemia cells (drug exposure 2 h, final cell counts 48 hours after start of drug treatment, read-out: IC50) was determined as 2500 nM; with L1210 leukemia cells (drug exposure 2 hr, comparison of compound 5 with compound 3, read-out: L1210 IC50), 2500 nM; with L1210 leukemia cells (drug exposure 2 hr, read-out: L1210 IC50), 2740 nM; with L1210 leukemia cells (drug exposure 8 h, final cell counts 48 hours after start of drug treatment, read-out: IC50) it was 1010 nM; with L1210 leukemia cells (drug exposure 8 hr, comparison of compound 5 with compound 3, read-out: L1210 IC50), 1010 nM; in the assay on L1210 leukemia cells (drug exposure 8 hr, read-out: L1210 IC50), 1390 nM. The IC50 in the assay with L1210 leukemia cells (drug exposure 24 h, final cell counts 48 hours after start of drug treatment, read-out: IC50) worked out at 360 nM; in the assay with L1210 leukemia cells (drug exposure 24 hr, comparison of compound 5 with compound 3, read-out: L1210 IC50), 360 nM; with L1210 leukemia cells (drug exposure 24 hr, read-out: L1210 IC50) it was 495 nM; with L1210 leukemia cells (drug exposure 48 h, final cell counts 48 hours after start of drug treatment, read-out: IC50) it was 200 nM; with L1210 leukemia cells (drug exposure 48 hr, comparison of compound 5 with compound 3, read-out: L1210 IC50), 200 nM; in the assay with L1210 leukemia cells (drug exposure 48 hr, read-out: L1210 IC50), 265 nM.
With `CC(=O)NC(Cc1ccc(OP(=O)(OCc2ccc([N+](=O)[O-])o2)N(C)CCCCCl)cc1)C(=O)NC(C)c1ccc(OCC2CCCCC2)c(C(N)=O)c1` (stereo not shown) [Compound 38], the concentration for half-maximal inhibition (IC50) in assay [1] amounted to 5.6 µM.
As for `CC(NC(=O)c1ccc(OP(=O)(O)O)cc1)c1ccc(OCC2CCCCC2)c(C(N)=O)c1` (stereo not shown) [Compound 12A], the Kd on pp60src SH2 domain is 5.6 µM.
Consider `COC1=CC(=O)c2c(cc(COP(=O)(OCC3OC(n4cc(F)c(=O)[nH]c4=O)CC3O)N(C)CCCCCl)n2C)C1=O` (stereo not shown) [Compound 6, 5-Fluoro-2′-deoxyuridyl 2-(5-methoxy-N-methylindoloquinone)methyl N-methyl-N-(4-chlorobutyl)phosphoramidate], for which the IC50 with L1210 leukemia cells (setting [5]) is 1.6 nM; in the assay with L1210 leukemia cells (setting [7]), 34 nM; in the assay with L1210 leukemia cells (setting [8]) it was 48 nM; in the assay with L1210 leukemia cells (setting [9]), 4.8 nM.
Turning to `CC(NC(=O)c1ccc(OP(=O)(OCC2=CC(=O)c3ccccc3C2=O)N(C)CCCCCl)cc1)c1ccc(OCC2CCCCC2)c(C(N)=O)c1` (stereo not shown) [Compound 37], the IC50 in assay [1] amounted to 4.2 µM.
As to `CC(NC(=O)c1ccc(NP(=O)(OCc2ccc([N+](=O)[O-])o2)N(C)CCCCCl)cc1)c1ccc(OCC2CCCCC2)c(C(N)=O)c1` (stereo not shown) [Compound 42], in assay [1] (transfected J77 cells, drug 2 hours, then PMA/Ionomycin/Anti-CD3 for 6 hours), the IC50 came out at 15 µM.
